Experimental data published in US10028961B2, “Therapeutically active compounds and their methods of use” (AGIOS PHARMACEUTICALS, INC., priority 2013, dated 2018).
Where two headings read alike, the source gives them in different places.

Columns and labels:
[1] = molecular target: IDH1 wt/IDH1 R132H heterodimer (Homo sapiens (Human), UniProt O75874, R132H); assay: In vitro assay for IDH1m R132H inhibitors, IDH1 wt/IDH1 R132H heterodimer, NADPH depletion (diaphorase/resazurin); assay type: biochemical
Chain of IDH1 wt/IDH1 R132H heterodimer (O75874 whole entry R132H): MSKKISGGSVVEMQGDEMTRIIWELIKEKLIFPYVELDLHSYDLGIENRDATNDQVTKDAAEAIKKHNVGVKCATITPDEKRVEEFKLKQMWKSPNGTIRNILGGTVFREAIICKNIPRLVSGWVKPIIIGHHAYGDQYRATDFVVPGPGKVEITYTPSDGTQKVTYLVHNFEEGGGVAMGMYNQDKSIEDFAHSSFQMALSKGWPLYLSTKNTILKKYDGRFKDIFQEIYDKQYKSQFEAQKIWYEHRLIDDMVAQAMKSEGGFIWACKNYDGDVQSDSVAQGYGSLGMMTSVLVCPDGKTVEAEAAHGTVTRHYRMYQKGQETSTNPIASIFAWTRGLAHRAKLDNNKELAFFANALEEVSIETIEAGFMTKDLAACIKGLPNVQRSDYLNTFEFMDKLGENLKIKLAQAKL
Chain of IDH1 wt/IDH1 R132H heterodimer (O75874 whole entry, stated change not applied): as the sequence (O75874 whole entry R132H) above, with H132R counted along it
Procedure: The following describes the experimental procedures that can be used to obtain data on columns 2 and 4 of Table 4 and column 2 of Table 5.
In the primary reaction, the reduction of α-KG acid to 2-HG is accompanied by a concomitant oxidation of NADPH to NADP. The amount of NADPH remaining at the end of the reaction time is measured in a secondary diaphorase/resazurin reaction in which the NADPH is consumed in a 1:1 molar ratio with the conversion of resazurin to the highly fluorescent resorufin.
The mixture of compound, enzyme, and cofactor is pre-incubated at room temperature for 1 hr prior to the addition of alpha-ketoglutarate. To perform the secondary reaction, 10 uL of 1× buffer containing 36 μg/ml diaphorase and […] resazurin is added to the primary reaction and incubated for a further 5 minutes at 25° C. […] Compounds or compound dilutions are prepared in 100% DMSO concentration and diluted 1:50 into the final reaction. […] IC50s are determined.
IDH1 or IDH2 wildtype (wt) and mutant heterodimers are expressed and purified by methods known in the art. […] Co-expression of IDH1wt-his and IDH1R132C-flag is carried out in sf9 insect cells. Cells (25 g) are resuspended in 250 ml of 50 mM Tirs, 500 mM NaCl, pH7.4, at 4° C. with stirring. Cells are disrupted with 4 passes through an M-Y110 Micro fluidizer (Microfluidics) set to 500 psi, and then centrifuged at 22,000 rcf for 20 min at 4° C. The supernatant is harvested and loaded at 15 cm/h on a Histrap FF 5*1 ml column (GE) which is equilibrated with 50 mM Tirs, 500 mM NaCl, pH7.4. Host cell contaminants are removed by washing the column with equilibration buffer followed by equilibration buffer containing 20 mM imidazole and 60 mM imidazole to baseline. IDH1wt-his homodimer and IDH1wt-his/IDH1R132C-flag are eluted by equilibration buffer containing 250 mM imidazole. Fractions eluted by 250 mM imidazole are pooled together and loaded at 15 cm/h onto a column pre-packed with 10 ml ANTI-FLAG® M2 Affinity Gel (Sigma), the column is equilibrated with 50 mM Tris, 500 mM NaCl, pH7.4. After washing with equilibration buffer, IDH1wt-his/IDH1R132C-flag heterodimer is eluted by equilibration buffer containing flag peptide (0.2 mg/ml). Aliquots of IDH1wt-his/IDH1R132C-flag are flash frozen in liquid N2 and stored at −80° C. Same conditions are used for the purification of IDH1wt-his/IDH1R132H-flag.

[2] = molecular target: IDH2 R140Q (Homo sapiens (Human), UniProt P48735, R140Q); assay: In vitro assay for IDH2m R140Q inhibitors, cofactor depletion assay; assay type: biochemical; conditions: IDH2 R140Q enzyme
Chain of IDH2 R140Q (P48735 40-452 R140Q): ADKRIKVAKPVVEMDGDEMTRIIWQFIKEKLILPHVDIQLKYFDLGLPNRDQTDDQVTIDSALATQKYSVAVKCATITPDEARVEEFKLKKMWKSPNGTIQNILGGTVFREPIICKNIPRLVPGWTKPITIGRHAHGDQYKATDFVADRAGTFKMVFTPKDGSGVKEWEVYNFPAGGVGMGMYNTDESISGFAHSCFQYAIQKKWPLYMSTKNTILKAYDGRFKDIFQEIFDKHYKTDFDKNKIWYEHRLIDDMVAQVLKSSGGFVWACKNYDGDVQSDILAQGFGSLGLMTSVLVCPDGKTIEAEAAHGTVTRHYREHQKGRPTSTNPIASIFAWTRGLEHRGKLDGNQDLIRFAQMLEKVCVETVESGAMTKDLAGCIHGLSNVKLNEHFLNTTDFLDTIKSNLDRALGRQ
Excerpt: The following describes the experimental procedures used to obtain data on column 7 of Table 4.
The reaction is terminated by the addition of a second enzyme, diaphorase, and a corresponding substrate, resazurin. Diaphorase reduces resazurin to the highly fluorescent resorufin with the concomitant oxidation of NADPH to NADP, both halting the IDH2 reaction by depleting the available cofactor pool and facilitating quantitation of the amount of cofactor remaining after a specific time period through quantitative production of an easily detected fluorophore.
The test compound is then incubated for one hour at room temperature with the enzyme; before starting the IDH2 reaction with the addition of 10 μl of substrate mix containing 4 μM NADPH and 1.6 mM α-KG in the buffer described above. After a further 16 hours of incubation at room temperature, the reaction is halted and the remaining NADPH measured through conversion of resazurin to resorufin by the addition of 25 μl Stop Mix (36 μg/ml diaphorase enzyme and 60 μM resazurin; in buffer).

[3] = test system: U87MG pLVX-IDH2 R140Q-neo cells; assay: U87MG pLVX-IDH2 R140Q-neo cell based assay, 2-HG by LC-MS; conditions: Homo sapiens, U-87 MG
[4] = test system: Neurosphere cells (TS603); assay: Cellular assay for IDH1m R132H inhibitors, 2-HG by LC-MS in neurosphere cells (TS603); assay type: cell-based; conditions: 2-HG in media at 48 hours
Procedure: Cellular Assay for IDH1m R132H Inhibitors.
The following describes the experimental procedures that can be used to obtain data in column 4 of Table 5.
Neurosphere cells (TS603) are grown at 37 C in 5% CO2 in Stem Cell Technologies NeuroCult™ NS-A media supplemented with 1% Primocin, 1% Normocin, 0.0002% Heparin, 20 ng/mL EGF and 10 ng/mL bFGF. Cells are harvested, pelleted and resuspended in Accumax for cell dissociation and counting. Cells are counted and then resuspended in NeuroCult media with 2× heparin, EGF and bFGF at 4 million cells/10 mL media. 100 μl of cell solution are plated in each well of a 96 well with the exception of columns 1 and 12. Columns 1 and 12 contain 200 μL PBS. Compound dose responses are set up at a 2× concentration in Neurocult media without heparin, EGF and bFGF. The final concentration of DMSO is 0.25%. DMSO only control wells are plated in row H. The plates are then placed in the incubator for 48 hours. At 48 hours, 100 μl of media is removed from each well and analyzed by LC-MS for 2-HG concentrations. The cell plate is placed back in the incubator for another 24 hours. At 72 hours post compound addition, 10 mL/plate of Promega Cell Titer Glo reagent is thawed and mixed. The cell plate is removed from the incubator and allowed to equilibrate to room temperature. Then 100 μl of Promega Cell Titer Glo reagent is added to each well of media. The cell plate is then placed on an orbital shaker for 10 minutes and then allowed to sit at room temperature for 20 minutes. The plate is then read for luminescence with an integration time of 500 ms.

[5] = IDH1 wt/IDH1 R132H heterodimer, 300 μM NADP (saturated), read-out: IDH1 wt/R132H NADPH/NADP IC50 saturated
[6] = IDH1 wt/R132H heterodimer, NADPH/NADP, not saturated, read-out: IDH1 wt/R132H NADPH/NADP IC50 not saturated

| Structure (SMILES) | IC50 [1, 5] | IC50 [2] | IC50 [3] | IC50 [4] | IC50 [1, 6] |
| --- | --- | --- | --- | --- | --- |
| C[C@H](Nc1nc(Nc2ccnc(C3(C#N)CC3)c2)nc(-n2ccc(C(F)(F)F)n2)n1)C(F)(F)F [Compound 349] | < 50 nM | < 50 nM | < 50 nM | < 50 nM |  |
| FC1(F)CC[C@@H](Nc2nc(Nc3ccnc(C(F)(F)F)c3)nc(-c3ccnc(C(F)(F)F)n3)n2)C1 [Compound 340] | 100 to 1000 nM | < 50 nM | < 50 nM | 50 to 100 nM |  |
| FC(F)(F)c1cccc(-c2nc(NCC3CC3(F)F)nc(NCC3CC3(F)F)n2)n1 (centres unmarked) [Compound 354] | 50 to 100 nM | < 50 nM | < 50 nM | < 50 nM |  |
| CC(F)(F)c1cc(Nc2nc(NC3CC(F)(F)C3)nc(-c3cccc(C(F)(F)F)n3)n2)ccn1 [Compound 358] | < 50 nM | < 50 nM | < 50 nM | < 50 nM |  |
| N#CC1(c2cc(Nc3nc(N[C@@H]4CCC(F)(F)C4)nc(-c4nccc(C(F)(F)F)n4)n3)ccn2)CC1 [Compound 375] | 100 to 1000 nM | < 50 nM | < 50 nM | < 50 nM |  |
| N#CC1(c2cc(Nc3nc(N[C@@H]4CCC(F)(F)C4)nc(-c4ccnc(C(F)(F)F)n4)n3)ccn2)CC1 [Compound 342] | 100 to 1000 nM | < 50 nM | < 50 nM | < 50 nM |  |
| CC[C@H](Nc1nc(N[C@@H](CC)C(F)(F)F)nc(-c2ccnc(C(F)(F)F)n2)n1)C(F)(F)F [Compound 345] | < 50 nM | 100 to 1000 nM | 100 to 1000 nM | < 50 nM |  |
| Fc1cc(F)cc(Nc2nc(NC3CCC(F)(F)C3)nc(-c3nc(F)ccc3F)n2)c1 (centres unmarked) [Compound 139] |  | < 50 nM | < 50 nM | < 50 nM | < 50 nM |
| CC[C@H](Nc1nc(N[C@@H](CC)C(F)(F)F)nc(-c2cccc(C(F)(F)F)n2)n1)C(F)(F)F [Compound 346] | < 50 nM | < 50 nM | < 50 nM | < 50 nM |  |
| Fc1ccc2c(c1)CC(Nc1nc(NC3CCC(F)(F)C3)nc(-c3cccc(C(F)(F)F)n3)n1)C2 (centres unmarked) [Compound 150] |  | < 50 nM | < 50 nM | < 50 nM | < 50 nM |
| CC(F)(F)c1cc(Nc2nc(N[C@@H]3CCC(F)(F)C3)nc(-c3cccc(C(F)(F)F)n3)n2)ccn1 [Compound 355] | < 50 nM | < 50 nM | < 50 nM | < 50 nM |  |
| C[C@H](Nc1nc(Nc2ccnc(C3(C#N)CC3)c2)nc(-c2cccc(C(C)(F)F)n2)n1)C(F)(F)F [Compound 347] | < 50 nM | < 50 nM | < 50 nM | < 50 nM |  |
| C[C@@H](Nc1nc(Nc2ccnc(C3(C#N)CC3)c2)nc(-c2cccc(C(F)(F)F)n2)n1)C(F)(F)F [Compound 352] | < 50 nM | < 50 nM | < 50 nM | < 50 nM |  |
| FC(F)(F)c1cc(Nc2nc(NCC3CC3(F)F)nc(-c3cccc(C(F)(F)F)n3)n2)ccn1 (centres unmarked) [Compound 365] | 50 to 100 nM | < 50 nM | < 50 nM | < 50 nM |  |
| FC1(F)CCC(Nc2nc(NC3CC4(C3)CC(F)(F)C4)nc(-c3cccc(C(F)(F)F)n3)n2)CC1 [Compound 228] |  | < 50 nM | < 50 nM | < 50 nM | < 50 nM |
| C[C@@H](Nc1nc(Nc2ccnc(C3(C#N)CC3)c2)nc(-c2cncc(C(F)F)n2)n1)C(F)(F)F [Compound 336] | < 50 nM |  |  | < 50 nM |  |
| CC(Cc1ccccc1)Nc1nc(N[C@H](C)C2CC2)nc(-c2cccc(C(F)(F)F)n2)n1 (some centres unmarked) [Compound 206] |  |  |  | < 50 nM | < 50 nM |
| C[C@@H](Nc1nc(NC2CCc3ccccc32)nc(-c2cccc(C(F)(F)F)n2)n1)C1CC1 (some centres unmarked) [Compound 135] |  |  |  | < 50 nM | < 50 nM |
| FC1(F)CCC(Nc2nc(NC3CCC(F)(F)CC3)nc(-c3cccc(C4CC4)n3)n2)CC1 [Compound 305] |  |  |  | 100 to 1000 nM | > 1000 nM |
